Results as given in EP2438921A1, “23-O-Acetylshengmanol-3-O-beta-D-xylopyranoside and its medical use” (Universität Innsbruck, priority 2010, dated 2012).

Experiments:
[1] = molecular target: T1, GABAA receptors composed of α1, β2 and γ2S subunits (Homo sapiens, UniProt P14867+P18507+P47870); assay: Modulation of GABA-induced chloride currents (IGABA), two-microelectrode voltage-clamp in Xenopus laevis oocytes expressing GABAA receptors; type: cell-based; settings: for Stimulation of IGABA (%): 100 µM of compound, GABA EC3-10 concentration; for Maximal stimulation of IGABA: GABA EC3-10, α1β2γ2S receptors
T1 construct: expressed in transfected cells; host or cells: Xenopus laevis oocytes (stage V-VI), injected with cRNA transcribed from cDNA templates in pCMV vector; α1:β2:γ2S cRNA ratio 1:1:10
Procedure: Preparation of stage V-VI oocytes from Xenopus laevis, synthesis of capped off run-off poly(A^+) cRNA transcripts from linearized cDNA templates (pCMV vector) was performed as described (Khom et al. 2000). Briefly, female Xenopus laevis (NASCO, USA) were anaesthetised by exposing them for 15 minutes to a 0.2 % solution of MS-222 (methane sulfonate salt of 3-aminobenzoic acid ethyl ester; Sandoz) before surgically removing parts of the ovaries. Follicle membranes from isolated oocytes were enzymatically digested with 2 mg/ml collagenase (Type 1A, Sigma). One day after isolation, the oocytes were injected with about 10-50 nl of DEPC- treated water ([…], Sigma, Germany) containing the different cRNAs at a concentration of approximately 150 - 3000 ng/µl/subunit. The amount of cRNA was determined by means of a NanoDrop ND-1000 (Kisker-biotech, Steinfurt, Germany).
To ensure expression of the gamma-subunit, cRNAs were mixed in a ratio of 1:1:10 (Boileau et al., 2002). Oocytes were stored at 18°C in ND96 solution (Methfessel et al., 1986). Electrophysiological experiments were done using the two-microelectrode voyage-clamp method at a holding potential of -70 mV making use of a TURBO TEC 01C amplifier (npi electronic, Tamm, Germany) and an Axon Digidata 1322A interface (Molecular Devices, Sunnyvale, CA). Using pCLAMP v.9.2 data acquisition was carried out. The bath solution contained 90 mM NaCl, 1 mM KCI, 1 mM MgCl2·6H2O, 1 mM CaCl2 and 5 mM HEPES (pH 7.4). Microelectrodes were filled with 2M KCl and had resistances between 1 and 3 MΩ (Khom et al., 2007).
GABA and compound (extract, fraction or pure compound) were applied by means of fast perfusion system (see Baburin et al., 2006 for detail Drug or control solutions were applied by means of a TECAN Miniprep 60 permitting automation of the experiments. Oocytes with maximal current amplitudes >3 µA were discarded to exclude voltage-clamp errors (Khom et al., 2007).
Stimulation of chloride currents by modulators of the GABAA receptor was measured at a GABA concentration eliciting between 3 and 10% of the maximal current amplitude (EC3-10). The EC3-10 was determined at the beginning of each experiment. Enhancement of the chloride current was defined as (I(GABA+Comp)/IGABA) - 1, where I(GABA+Comp) is the current response in the presence of a given compound (extract, fraction or pure compound) and IGABA is the control GABA current. To measure the sensitivity of the GABAA receptor for a given compound, it was applied for an equilibration period of 1 minute before applying GABA ([…]). Concentration-response curves were generated and the data were fitted by non-iinear regression analysis using Origin software (OriginLab Corporation, USA). Data were fitted to the equation: (1)/(1 + (((EC50)/([Comp])))^nH), [formula] where nH is the Hill coefficient. Each data point represents the mean ± S.E. from at least 4 oocytes and ≥ 2 oocyte batches. Statistical significance was calculated using paired Student t-test with a confidence interval of p < 0.05.
As described above, dried and cut sub-aerial parts of A. racemosa were grinded and extracted with methanol. The resulting crude extract (A0) was subsequently partitioned between water and organic solvents of increasing polarity giving diethyl ether (A1), ethyl acetate (A2) and 1-butanol (A3) fractions. Obtained extracts and the remaining aqueous layer (A4) were tested for their ability to modulate IGABA at a concentration of 100 µg/mL. To analyse the modulation of IGABA by black cohosh extracts and isolated compounds, GABAA receptors composed of α1, β2 and γ2s subunits were expressed in Xenopus oocytes. Stimulation of IGABA was analysed by means of the 2-microelectrode voyage-clamp technique. These and all subsequent experiments were carried out at a GABA EC3-10 concentration.

[2] = test system: mice; assay: Open Field Test (OF); type: in vivo, mice (C57BI/6N); settings: for distance traveled in the open field in 10 min: 20 mg/kg/bodyweight i.p., 30 min prior to testing, control 38.2 ± 1.8 m
Procedure: (§1) Male mice (C57BI/6N) were obtained from Charles River Laboratories (Germany).
(§2) For maintenance mice were group housed with free access to food and water. Temperature was fixed to 23°C and 60% humidity with a 12 h light-dark cycle (lights on 0700-1900 hours). Mice at 3-8 months age were tested in all experiments (Khom et al., 2010).
(§3) Mice were transferred to the testing facility 24 h before commencement of experiments. Tests were performed between 0900 and 1300 hours. All tests were evaluated by an experimenter blinded to the administered compound, 30 min prior to testing animals were injected either with saline (0.9% NaCl-solution) as a control or with 23-O-acetylshengmanol-3-O-β-D-xylopyranosid (i.e., compound 4) and actein (i.e., compound 1), respectively (50 mg/250 µL stock prepared in 100% DMSO) at the indicated doses (0.2 mg/kg, 0.6 mg/kg, 2 mg/kg, 6 mg/kg, 20 mg/kg and 60 mg/kg bodyweight). All injection solutions contained 3% Polysorbat 80 and 10% of DMSO.
To determine explorative behaviour mice treated (n=9 for all doses) with compound 4 and control (n=11 mice were studied in the OF.
Open field behavior was tested over 10 min in a 50x50 cm box equipped with infrared rearing detection. Illumination was set to 150 lux. Explorative behavior was recorded and analyzed using the ActiMot 2 equipment (infrared beams) and software (TSE-systems, Bad Homburg, Germany). Arenas were subdivided into border (up to 8 cm from wall), center (20x20 cm, ie 16% of total area), and intermediate area according to the recommendations of EMPRESS (European Mouse Phenotyping Resource of Standardised Screens; http://empress.har.mrc.ac.uk).

[3] = molecular target: T1, GABAA receptors composed of α1, β2 and γ2S subunits; assay: Modulation of GABA-induced chloride currents (IGABA), two-microelectrode voltage-clamp in Xenopus laevis oocytes expressing GABAA receptors; type: cell-based; settings: IGABA-max induced by application of 1mM GABA; data not shown
[4] = test system: mice; assay: Light/Dark Choice Test (LDT); type: in vivo, mice (C57BI/6N)
Procedure: as §1, §2, §3
Explorative behavior in a brightly lit area (400 lux) was investigated by insertion of a black box into the open field arena, covering one third of the space. Time spent and distance travelled was measured over a 10 min period in the open area. One small field directly at the entrance to the black box was assigned as transition zone. To reach the larger compartment assigned as open area, the mouse had to leave the dark area completely. Behaviour was recorded and analyzed by means of the ActiMot2 system and software (TSE-systems, Bad Homburg, Germany).

[5] = test system: mice; assay: Stress-induced Hyperthermia Test (SIH); type: in vivo, mice (C57BI/6N)
Procedure: as §1, §2, §3
A temperature probe, lubricated with petrolatum, was inserted into the rectum of the mouse for a depth of up to 2 cm. […]
Prior to i.p injection of compound or saline the basal body temperature was determined. 3h after i.p injection, temperature was measured twice by means of a TH-5 Thermalert Monitoring Thermometer combined with a RET-3 rectal probe for mice. […]

T1 sequence (P14867 28-456): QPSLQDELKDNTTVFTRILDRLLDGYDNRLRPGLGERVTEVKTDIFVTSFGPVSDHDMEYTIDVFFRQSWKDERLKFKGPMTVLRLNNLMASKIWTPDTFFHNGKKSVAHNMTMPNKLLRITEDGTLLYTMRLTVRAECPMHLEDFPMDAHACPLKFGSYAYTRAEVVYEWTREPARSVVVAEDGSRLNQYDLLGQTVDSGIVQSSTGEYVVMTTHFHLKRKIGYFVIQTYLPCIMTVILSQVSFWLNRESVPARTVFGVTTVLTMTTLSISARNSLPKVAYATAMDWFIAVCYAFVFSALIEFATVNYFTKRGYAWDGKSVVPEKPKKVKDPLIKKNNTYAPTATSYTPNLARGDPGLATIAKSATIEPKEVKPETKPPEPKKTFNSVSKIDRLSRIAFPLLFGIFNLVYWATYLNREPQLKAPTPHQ
T1 sequence (P47870 26-512): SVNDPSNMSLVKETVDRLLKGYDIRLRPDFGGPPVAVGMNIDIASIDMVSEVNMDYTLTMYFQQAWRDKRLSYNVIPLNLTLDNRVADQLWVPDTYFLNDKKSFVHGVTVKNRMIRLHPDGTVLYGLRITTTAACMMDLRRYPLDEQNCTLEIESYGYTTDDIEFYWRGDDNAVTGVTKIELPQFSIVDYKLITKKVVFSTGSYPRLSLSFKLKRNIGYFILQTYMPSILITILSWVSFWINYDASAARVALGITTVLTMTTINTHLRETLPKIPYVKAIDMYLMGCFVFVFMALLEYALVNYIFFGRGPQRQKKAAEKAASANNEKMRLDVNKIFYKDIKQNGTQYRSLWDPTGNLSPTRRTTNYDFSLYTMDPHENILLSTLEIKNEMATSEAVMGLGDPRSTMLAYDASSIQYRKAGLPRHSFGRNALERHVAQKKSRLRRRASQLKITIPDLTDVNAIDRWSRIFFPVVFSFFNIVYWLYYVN
T1 sequence (P18507 40-467 isoform P18507-1 limits assumed): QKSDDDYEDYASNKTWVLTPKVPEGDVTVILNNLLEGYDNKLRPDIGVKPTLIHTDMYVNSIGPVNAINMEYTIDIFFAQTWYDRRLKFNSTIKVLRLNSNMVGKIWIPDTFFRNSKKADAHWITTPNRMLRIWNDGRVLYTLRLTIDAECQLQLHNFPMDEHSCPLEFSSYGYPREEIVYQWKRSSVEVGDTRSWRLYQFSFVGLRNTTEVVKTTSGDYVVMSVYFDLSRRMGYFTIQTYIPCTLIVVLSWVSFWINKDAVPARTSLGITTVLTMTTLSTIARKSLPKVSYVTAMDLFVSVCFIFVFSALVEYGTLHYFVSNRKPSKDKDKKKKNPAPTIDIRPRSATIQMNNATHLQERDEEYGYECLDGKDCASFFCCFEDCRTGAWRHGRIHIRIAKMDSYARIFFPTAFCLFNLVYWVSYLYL

Molecule	Stimulation of IGABA (%) [1] [%]	EC50 [1] [µM]	Maximal stimulation of IGABA ([1]; compound 4 at 300 µM) [%]	also measured
12-acetylacteol [Compound 1a]	126 ± 29			
CC(=O)O[C@@H]1C[C@@]23C[C@@]24CC[C@H](O[C@@H]2OC[C@@H](O)[C@H](O)[C@H]2O)C(C)(C)[C@@H]4CC[C@H]3[C@]2(C)C[C@@H]3O[C@]4(C[C@@H](C)[C@@H]3[C@@]12C)O[C@H](O)[C@@]1(C)O[C@@H]41 [Compound 1, actein]		36 ± 14	378 ± 64	distance traveled in the open field in 10 min [2]: 30.6 ± 2.1 m
CC(=O)OC1CC23CC24CCC(OC2OCC(O)C(O)C2O)C(C)(C)C4CCC3C2(C)CC3OC4(CC(C)C3C12C)OCC1(C)OC14 (centres unmarked) [Compound 2, 26-deoxyactein]	10 ± 6			
CC(=O)O[C@@H]1C[C@@]23C[C@@]24CC[C@H](O[C@@H]2OC[C@@H](O)[C@H](O)[C@H]2O)C(C)(C)[C@@H]4CC[C@H]3[C@]2(C)C[C@@H]3O[C@@]4(C[C@@H](C)[C@@H]3[C@@]12C)OC[C@@]1(C)O[C@@H]41 [Compound 3, 23-epi-26-deoxyactein]	10 ± 4			
CC(=O)OC(CC(C)C1C(=O)C(O)C2(C)C3CCC4C(C)(C)C(OC5OCC(O)C(O)C5O)CCC45CC35CCC12C)C1OC1(C)C [Compound 4, 23-O-acetylshengmanol-3-O-β-D-xylopyranoside]		27 ± 8		chloride currents induced in the absence of GABA [3]: ≤ 1 % of IGABA-max; distance travelled in the lit area ([4]; i.p., data not shown): without significant effects; time spent in the lit area (400 Lux) ([4]; ip, 0.6 mg/kg, 10 min): 265 ± 52 s; Transitions from the dark compartment to the lit area ([4]; vs vehicle group, data not shown): did not differ; IGABA enhancement, times stronger than the other isolated compounds ([1]; 100 µM, GABA EC3-10): about 10 times; distance traveled in the open field in 10 min [2]: 22.6 ± 2.8 m; ambulation in all areas of the OF and overall ambulation compared to control ([2]; doses ≥2 mg/kg/bodyweight i.p.): significantly (p<0.05) decreased ambulation; reduced distance compared to control littermates ([2]; doses ≥20 mg/kg i.p.): approximately 50%; body temperature increase upon stress (ΔT) ([5]; 6 mg/kg/bodyweight i.p., 3h after injection, control 1.2 ± 0.1°): 0.1 ± 0.1 °; body temperature increase upon stress (ΔT) compared to control ([5]; i.p., doses of Figure 9): significantly (p<0.05) smaller increase
CC(=O)O[C@H](C[C@@H](C)[C@H]1C(=O)[C@H](O)[C@@]2(C)[C@@H]3CC[C@H]4C(C)(C)[C@@H](O)CC[C@@]45C[C@@]35CC[C@]12C)[C@@H]1OC1(C)C [Compound 4a, 23-O-acetylshengmanol]	64 ± 14			
CC(=O)O[C@@H]1C[C@@]23C[C@@]24CC[C@H](O[C@@H]2OC[C@@H](O)[C@H](O)[C@H]2O)C(C)(C)[C@@H]4CC=C3[C@]2(C)C[C@@H]3O[C@@]4(O)[C@H](OC(C)(C)[C@H]4O)[C@@H](C)[C@@H]3[C@@]12C [Compound 5, cimiracemoside F]	5 ± 2			
C[C@@H]1C[C@H]2O[C@@]3(O[C@@H]2C(C)(C)O)[C@H](O)[C@@]2(C)[C@@H]4CC[C@H]5C(C)(C)[C@@H](O[C@@H]6OC[C@@H](O)[C@H](O)[C@H]6O)CC[C@@]56C[C@@]46CC[C@]2(C)[C@@H]13 [Compound 6, cimigenol-3-O-β-D-xylopyranoside]		28 ± 17	256 ± 40	
CC(=O)OC(C)(C)[C@H]1O[C@@]23O[C@@H]1C[C@@H](C)[C@@H]2[C@@]1(C)CC[C@@]24C[C@@]25CC[C@H](O[C@@H]2OC[C@H](O)[C@H](O)[C@H]2O)C(C)(C)[C@@H]5CC[C@H]4[C@]1(C)[C@H]3O [Compound 8, 25-O-acetylcimigenol-3-O-α-L-arabinopyranoside]		26 ± 7	289 ± 45	Emax at 300 µM ([1]; read-out: Maximal stimulation of IGABA, GABA EC3-10, α1β2γ2S receptors, compound 4 at 300 µM): < 300%
C=C(C)[C@H]1O[C@@]23O[C@@H]1C[C@@H](C)[C@@H]2[C@@]1(C)CC[C@@]24C[C@@]25CC[C@H](O[C@@H]2OC[C@@H](O)[C@H](O)[C@H]2O)C(C)(C)[C@@H]5CC[C@H]4[C@]1(C)[C@H]3O [Compound 10, 25-O-anhydrocimigenol-3-O-β-D-xylopyranoside]	-76 ± 7	26 ± 7		
